Measurements as given in patent US12227488B2, “Small molecule degraders of Helios and methods of use” (DANA-FARBER CANCER INSTITUTE, INC., priority 2018, dated 2025).

Assays:
SALL4 ZNF1-2 = molecular target: T1, SALL4 ZNF1-2 (Homo sapiens, UniProt Q96SW2+Q9UJQ4); assay: Cellular degradation assay, eGFP-SALL4 ZnF1-2 fusion with mCherry reporter in Flp-In 293 cells; format: cell-based; details: 5 h incubation, n=1
T1 construct: IKZF1Δ, IKZF2Δ, GSPT1 and SALL4 ZnF1-2 were subcloned; expressed in transfected cells; host or cells: Flp-In 293
T1 sequence (Q9UJQ4 378-438 limits assumed): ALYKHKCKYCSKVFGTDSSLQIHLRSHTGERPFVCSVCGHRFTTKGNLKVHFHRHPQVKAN
T1 sequence (Q96SW2 whole entry, the tested form may be a part): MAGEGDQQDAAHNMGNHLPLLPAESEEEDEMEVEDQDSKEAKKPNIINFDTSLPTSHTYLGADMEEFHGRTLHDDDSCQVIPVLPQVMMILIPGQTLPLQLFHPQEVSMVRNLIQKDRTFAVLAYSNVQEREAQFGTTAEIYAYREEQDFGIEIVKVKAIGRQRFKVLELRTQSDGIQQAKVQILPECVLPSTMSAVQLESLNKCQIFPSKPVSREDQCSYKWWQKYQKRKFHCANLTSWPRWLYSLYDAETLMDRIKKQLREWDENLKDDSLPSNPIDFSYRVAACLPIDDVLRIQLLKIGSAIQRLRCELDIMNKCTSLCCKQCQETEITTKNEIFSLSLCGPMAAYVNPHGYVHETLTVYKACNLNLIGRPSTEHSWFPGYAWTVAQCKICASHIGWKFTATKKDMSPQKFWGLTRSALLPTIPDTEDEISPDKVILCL
T1 sequence (Q16531 whole entry partner, the tested form may be a part): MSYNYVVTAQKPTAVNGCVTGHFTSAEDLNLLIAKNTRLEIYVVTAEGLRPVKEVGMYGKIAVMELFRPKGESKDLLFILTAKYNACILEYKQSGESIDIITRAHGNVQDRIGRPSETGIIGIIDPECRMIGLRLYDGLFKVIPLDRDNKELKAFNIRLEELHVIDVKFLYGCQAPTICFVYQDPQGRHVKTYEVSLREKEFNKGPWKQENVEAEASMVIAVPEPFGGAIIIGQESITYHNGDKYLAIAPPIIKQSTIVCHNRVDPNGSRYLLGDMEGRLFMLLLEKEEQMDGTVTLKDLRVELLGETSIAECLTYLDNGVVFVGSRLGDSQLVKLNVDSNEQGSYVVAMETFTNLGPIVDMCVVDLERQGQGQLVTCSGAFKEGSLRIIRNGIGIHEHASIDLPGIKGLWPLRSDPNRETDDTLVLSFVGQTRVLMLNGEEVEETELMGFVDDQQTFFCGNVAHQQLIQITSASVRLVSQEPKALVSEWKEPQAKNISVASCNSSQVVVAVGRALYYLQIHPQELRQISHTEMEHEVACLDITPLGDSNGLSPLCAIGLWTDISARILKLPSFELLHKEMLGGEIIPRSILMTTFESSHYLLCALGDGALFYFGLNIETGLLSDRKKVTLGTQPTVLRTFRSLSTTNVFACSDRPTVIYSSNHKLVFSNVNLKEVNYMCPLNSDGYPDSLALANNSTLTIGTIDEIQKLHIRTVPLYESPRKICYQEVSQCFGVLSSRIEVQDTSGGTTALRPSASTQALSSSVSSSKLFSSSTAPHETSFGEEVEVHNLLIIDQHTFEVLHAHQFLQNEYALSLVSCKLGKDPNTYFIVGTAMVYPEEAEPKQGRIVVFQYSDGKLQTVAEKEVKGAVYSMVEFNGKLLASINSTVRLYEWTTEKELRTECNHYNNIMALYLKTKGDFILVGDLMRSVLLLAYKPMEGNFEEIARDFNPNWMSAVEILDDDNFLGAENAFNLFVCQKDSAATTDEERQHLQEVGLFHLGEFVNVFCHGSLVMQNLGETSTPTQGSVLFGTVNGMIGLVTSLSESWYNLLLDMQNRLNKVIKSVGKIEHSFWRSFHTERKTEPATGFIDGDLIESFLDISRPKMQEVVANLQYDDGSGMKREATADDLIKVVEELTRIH
Method: IKZF1Δ, IKZF2Δ, GSPT1 and SALL4 ZnF1-2 were subcloned into mammalian pcDNA5/FRT Vector (Ampicillin and Hygromycin B resistant) modified to contain MCS-eGFP-P2A-mCherry. Stable cell lines expressing eGFP-protein fusion and mCherry reporter were generated using Flp-In™ 293 system. Plasmid (0.3 μg) and pOG44 (4.7 μg) DNA were preincubated in 100 μL of Opti-MEM® I (Gibco®, Life Technologies™) media containing 0.05 mg/mL Lipofectamine® 2000 (Invitrogen™) for 20 min and added to Flp-In™ 293 cells containing 1.9 ml of DMEM media (Gibco®, Life Technologies™) per well in a 6-well plate format (Falcon, 353046). Cells were propagated after 48 h and transferred into a 10 cm^2 plate (Corning, 430165) in DMEM media containing 50 μg/mL of Hygromycin B (REF 10687010, Invitrogen™) as a selection marker. Following 2-3 passage cycle, FACS (FACSAria™ II, BD) was used to enrich for cells expressing eGFP and mCherry. Cells stably expressing the IKZF1Δ, IKZF2Δ, GSPT1 or SALL4 Znf1-2 GFP fusions with mCherry reporter were seeded at 30-50% confluency in 384-well plates with 50 μL FluoroBrite™ DMEM media (Thermo Fisher Scientific, A18967) containing 10% FBS per well a day before compound treatment. Compound titrations were dispensed using a D300e Digital Dispenser (HP), normalized to 0.5% DMSO, and incubated with cells for 5 hours. The assay plate was imaged immediately using an Acumen® High Content Imager (TTP Labtech) with 488 nm and 561 nm lasers in […] grid per well format.
The resulting images were analyzed using CellProfiler™. A series of image analysis steps (‘image analysis pipeline’) was constructed. First, the red and green channels were aligned and cropped to target the middle of each well (to avoid analysis of heavily clumped cells at the edges), and a background illumination function was calculated for both red and green channels of each well individually and subtracted to correct for illumination variations across the 384-well plate from various sources of error. An additional step was then applied to the green channel to suppress the analysis of large auto fluorescent artifacts and enhance the analysis of cell specific fluorescence by way of selecting for objects under a given size, 30 A.U., and with a given shape, speckles. mCherry-positive cells were then identified in the red channel filtering for objects between 8-60 pixels in diameter and using intensity to distinguish between clumped objects. The green channel was then segmented into GFP positive and negative areas and objects were labeled as GFP positive if at least 40% of it overlapped with a GFP positive area. The fraction of GFP-positive cells/mCherry-positive cells in each well was then calculated, and the green and red images were rescaled for visualization.

IKZF1 = molecular target: T2, IKZF1 (Homo sapiens, UniProt Q13422); assay: Cellular degradation assay, eGFP-IKZF1Δ fusion with mCherry reporter in Flp-In 293 cells; format: cell-based; details: 5 h incubation, n=1
T2 construct: expressed in transfected cells; host or cells: Flp-In 293
T2 sequence (Q13422 83-213 isoform Q13422-7 limits assumed): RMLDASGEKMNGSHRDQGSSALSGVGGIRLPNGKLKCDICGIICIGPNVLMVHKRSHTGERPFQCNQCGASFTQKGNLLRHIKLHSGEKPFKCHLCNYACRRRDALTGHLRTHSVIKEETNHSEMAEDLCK
T2 sequence (Q96SW2 whole entry partner, the tested form may be a part): as the sequence (Q96SW2 whole entry, the tested form may be a part) above
T2 sequence (Q16531 2-1140 partner limits assumed): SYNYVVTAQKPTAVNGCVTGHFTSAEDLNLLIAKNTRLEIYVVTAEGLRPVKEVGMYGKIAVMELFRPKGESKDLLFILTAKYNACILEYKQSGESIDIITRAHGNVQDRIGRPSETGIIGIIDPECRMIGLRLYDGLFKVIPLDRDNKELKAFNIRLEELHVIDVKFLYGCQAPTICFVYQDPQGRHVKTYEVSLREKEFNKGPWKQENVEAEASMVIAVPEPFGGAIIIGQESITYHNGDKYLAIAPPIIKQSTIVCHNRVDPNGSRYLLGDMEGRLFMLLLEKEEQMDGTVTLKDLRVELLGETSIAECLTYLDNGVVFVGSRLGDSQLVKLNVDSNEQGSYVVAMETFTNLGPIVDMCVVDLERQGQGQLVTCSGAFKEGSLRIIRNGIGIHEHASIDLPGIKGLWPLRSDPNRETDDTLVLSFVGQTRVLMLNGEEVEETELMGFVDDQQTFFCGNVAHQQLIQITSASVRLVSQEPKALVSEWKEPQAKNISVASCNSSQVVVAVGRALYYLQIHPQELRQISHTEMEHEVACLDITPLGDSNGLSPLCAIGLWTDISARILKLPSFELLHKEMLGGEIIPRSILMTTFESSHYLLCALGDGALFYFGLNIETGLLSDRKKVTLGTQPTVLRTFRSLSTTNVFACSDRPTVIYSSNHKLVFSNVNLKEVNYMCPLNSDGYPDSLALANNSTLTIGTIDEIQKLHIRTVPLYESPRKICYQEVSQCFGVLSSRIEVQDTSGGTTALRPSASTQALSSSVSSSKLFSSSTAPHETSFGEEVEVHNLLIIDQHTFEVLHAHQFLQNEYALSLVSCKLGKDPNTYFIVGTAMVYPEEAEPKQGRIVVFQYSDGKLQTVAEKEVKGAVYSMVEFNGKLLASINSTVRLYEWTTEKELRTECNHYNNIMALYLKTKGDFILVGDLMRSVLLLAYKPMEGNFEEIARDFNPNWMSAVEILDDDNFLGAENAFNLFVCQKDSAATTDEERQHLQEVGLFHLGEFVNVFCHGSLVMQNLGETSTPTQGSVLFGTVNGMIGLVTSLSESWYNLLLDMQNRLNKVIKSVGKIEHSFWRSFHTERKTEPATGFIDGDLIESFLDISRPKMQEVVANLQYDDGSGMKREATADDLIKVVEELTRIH
Summary of the method: (§1)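 DC50,5 h derived by variable-slope nonlinear fit of the per-well ratio of GFP-positive to mCherry-positive cells, imaged after 5 h compound exposure at 0.5% DMSO.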

GSPT1 = GSPT1 (Homo sapiens, UniProt P15170+Q96SW2); assay: Cellular degradation assay, eGFP-GSPT1 fusion with mCherry reporter in Flp-In 293 cells; format: cell-based; design: expressed in transfected cells; host or cells: Flp-In 293; details: 5 h incubation, n=1
Sequence of GSPT1 (P15170 whole entry, the tested form may be a part): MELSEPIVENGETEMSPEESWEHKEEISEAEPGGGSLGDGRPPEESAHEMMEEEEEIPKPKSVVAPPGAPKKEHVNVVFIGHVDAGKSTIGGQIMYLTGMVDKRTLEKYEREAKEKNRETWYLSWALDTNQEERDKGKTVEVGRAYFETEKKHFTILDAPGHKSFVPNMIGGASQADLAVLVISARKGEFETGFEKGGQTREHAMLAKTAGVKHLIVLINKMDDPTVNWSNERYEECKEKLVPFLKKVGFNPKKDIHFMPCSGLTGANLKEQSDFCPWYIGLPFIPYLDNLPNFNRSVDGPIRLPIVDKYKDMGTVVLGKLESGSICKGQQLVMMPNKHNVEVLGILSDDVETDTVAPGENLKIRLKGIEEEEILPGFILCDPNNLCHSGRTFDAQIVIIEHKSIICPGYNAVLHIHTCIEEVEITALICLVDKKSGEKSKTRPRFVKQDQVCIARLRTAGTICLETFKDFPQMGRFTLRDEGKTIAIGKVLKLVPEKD
Sequence of GSPT1 (Q96SW2 whole entry, the tested form may be a part): as the sequence (Q96SW2 whole entry, the tested form may be a part) above
Sequence of GSPT1 (Q16531 whole entry partner, the tested form may be a part): as the sequence (Q16531 whole entry partner, the tested form may be a part) above
Summary of the method: as §1

CRBN and Helios (IKZF2) = molecular target: T3, CRBN and Helios (IKZF2) (Homo sapiens, UniProt Q96SW2+Q9UKS7); assay: TR-FRET dimerization assay (CRBN-IKZF2 ternary complex formation); format: binding; details: n=1
T3 construct: His (N); Strep (N)
T3 sequence (Q96SW2 whole entry): as the sequence (Q96SW2 whole entry, the tested form may be a part) above
T3 sequence (Q9UKS7 whole entry): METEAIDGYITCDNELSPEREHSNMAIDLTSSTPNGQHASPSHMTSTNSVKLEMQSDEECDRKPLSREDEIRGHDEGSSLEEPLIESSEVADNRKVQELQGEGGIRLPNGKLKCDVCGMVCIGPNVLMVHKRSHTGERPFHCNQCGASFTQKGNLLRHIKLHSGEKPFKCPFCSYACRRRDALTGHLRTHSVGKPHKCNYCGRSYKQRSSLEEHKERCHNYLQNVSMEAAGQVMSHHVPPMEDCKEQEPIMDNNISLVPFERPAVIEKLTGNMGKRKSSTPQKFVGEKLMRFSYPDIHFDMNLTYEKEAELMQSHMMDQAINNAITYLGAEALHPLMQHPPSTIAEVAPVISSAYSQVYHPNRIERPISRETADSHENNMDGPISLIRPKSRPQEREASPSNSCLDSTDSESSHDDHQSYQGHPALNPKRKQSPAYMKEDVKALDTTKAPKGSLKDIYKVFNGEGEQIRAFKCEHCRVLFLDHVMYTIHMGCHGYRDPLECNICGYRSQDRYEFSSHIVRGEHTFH
Summary of the method: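 Compound-induced IKZF2 recruitment to CRBN was read as the 520/490 nm TR-FRET ratio after 15 min at rt. The mix held biotinylated IKZF2, BODIPY-labeled CRBN bound to DDB1 lacking the BPB propeller, tracer Tb-streptavidin and compound titrations; n=1, from ≥3 technical replicates per well.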

IKZF2 = assay: Cellular degradation assay, eGFP-IKZF2Δ fusion with mCherry reporter in Flp-In 293 cells; format: cell-based; details: 5 h incubation, n=1
Summary of the method: as §1

[1] = compound concentration 2.00E−05
[2] = compound concentration 2.00E−06
[3] = compound concentration 2.00E−07
[4] = compound concentration 6.6667E−05
[5] = compound concentration 6.6667E−06
[6] = compound concentration 6.6667E−07 (667 nM)

SMILES	SALL4 ZNF1-2 GFP/RFP Relative Abundance (SALL4 ZNF1-2; [1])	SALL4 ZNF1-2 GFP/RFP Relative Abundance (SALL4 ZNF1-2; [2])	SALL4 ZNF1-2 GFP/RFP Relative Abundance (SALL4 ZNF1-2; [3])	IKZF1 GFP/RFP Relative Abundance (IKZF1; [1])	IKZF1 GFP/RFP Relative Abundance (IKZF1; [2])	IKZF1 GFP/RFP Relative Abundance (IKZF1; [3])	GSPT1 GFP/RFP Relative Abundance (GSPT1; [1])	GSPT1 GFP/RFP Relative Abundance (GSPT1; [2])	GSPT1 GFP/RFP Relative Abundance (GSPT1; [3])	TR-FRET-IKZF2 (Normalized to CC-885) (CRBN and Helios (IKZF2); [4])	TR-FRET-IKZF2 (Normalized to CC-885) (CRBN and Helios (IKZF2); [5])	TR-FRET-IKZF2 (Normalized to CC-885) (CRBN and Helios (IKZF2); [6])	IKZF2 GFP/RFP Relative Abundance (IKZF2; [1])	IKZF2 GFP/RFP Relative Abundance (IKZF2; [2])	IKZF2 GFP/RFP Relative Abundance (IKZF2; [3])
O=C1CCC(N2C(=O)C=C(Nc3cnc4ccccc4c3)C2=O)C(=O)N1 (stereo not drawn) [Compound 27, 3-(2,5-dioxo-3-(quinolin-3-ylamino)-2,5-dihydro-1H-pyrrol-1-yl)piperidine-2,6-dione]	1.026	1.005	0.913	0.701	0.776	0.801	0.881	1.083	0.987	0.137	0.105	0.084	1.004	0.990	0.931
Cc1ccc(NC(=O)NCc2ccc(NC3=CC(=O)N(C4CCC(=O)NC4=O)C3=O)cc2)cc1Cl (stereo not drawn) [Compound 46, 1-(3-chloro-4-methylphenyl)-3-(4-((1-(2,6-dioxopiperidin-3-yl)-2,5-dioxo-2,5-dihydro-1H-pyrrol-3-yl)amino)benzyl)urea]	0.950	0.906	0.854	0.045	0.087	0.112	0.048	0.089	0.076	0.787	0.828	0.701	0.242	0.361	0.510
Cc1ccc(NC2=CC(=O)N(C3CCC(=O)NC3=O)C2=O)cc1Cl (stereo not drawn) [Compound 3, 3-(3-((3-chloro-4-methylphenyl)amino)-2,5-dioxo-2,5-dihydro-1H-pyrrol-1-yl)piperidine-2,6-dione]	0.914	0.884	0.879	0.242	0.370	0.349	1.204	1.006	1.190	0.357	0.267	0.253	1.032	0.973	0.979
Cc1ccc(NC(=O)NCc2ccccc2NC2=CC(=O)N(C3CCC(=O)NC3=O)C2=O)cc1Cl (stereo not drawn) [Compound 45, 1-(3-chloro-4-methylphenyl)-3-(2-((1-(2,6-dioxopiperidin-3-yl)-2,5-dioxo-2,5-dihydro-1H-pyrrol-3-yl)amino)benzyl)urea]	1.059	0.993	0.948	0.957	1.027	1.060	0.476	0.921	1.093	0.079	0.059	0.051	1.015	1.022	1.022
COC(=O)CN(C)C1=CC(=O)N(C2CCC(=O)NC2=O)C1=O (stereo not drawn) [Compound 15, Methyl N-(1-(2,6-dioxopiperidin-3-yl)-2,5-dioxo-2,5-dihydro-1H-pyrrol-3-yl)-N-methylglycinate]	0.912	0.910	1.047	1.041	1.032	0.996	1.009	1.036	1.043	0.050	0.039	0.025	1.024	1.036	1.028
O=C(O)CCCCNC1=CC(=O)N(C2CCC(=O)NC2=O)C1=O (stereo not drawn) [Compound 22, 5-((1-(2,6-dioxopiperidin-3-yl)-2,5-dioxo-2,5-dihydro-1H-pyrrol-3-yl)amino)pentanoic acid]	0.953	0.962	1.044	0.984	1.028	0.939	1.058	0.883	0.745	0.055	0.032	0.018	1.001	0.982	0.935
O=C1CCC(N2C(=O)C=C(Nc3nc[nH]n3)C2=O)C(=O)N1 (stereo not drawn) [Compound 18, 3-(3-((1H-1,2,4-triazol-3-yl)amino)-2,5-dioxo-2,5-dihydro-1H-pyrrol-1-yl)piperidine-2,6-dione]	0.967	0.999	0.904	0.943	0.833	0.847	0.880	0.650	0.498	0.062	0.018	0.024	1.055	0.992	0.990
O=C1CCC(N2C(=O)C=C(Nc3ccc(-c4ccccc4)cc3)C2=O)C(=O)N1 (stereo not drawn) [Compound 38, 3-(3-([1,1′-biphenyl]-4-ylamino)-2,5-dioxo-2,5-dihydro-1H-pyrrol-1-yl)piperidine-2,6-dione]	1.005	0.887	0.742	0.728	0.663	0.621	1.174	1.216	0.870	0.328	0.266	0.210	0.885	1.002	0.977
